According to patent US8143250B2, “6-7,dialkoxy quinazoline derivatives useful for treatment of cancer related disorders” (priority 2008, dated 2012):
Entries after “also recorded” stand apart in the source; their conditions may differ. Counter-ions that a name gives are not always drawn. Like-named read-outs stand apart in the source and are kept apart here.

Experiments:
A549 and H1299 cells = assay: cells; settings: Homo sapiens, read-out: inhibiting concentration (IC50)
Method: Solubilization of the cells by the addition of a detergent results in the liberation of the crystals, which are solubilized. The number of surviving cells is directly proportional to the level of the formazan product created. The color can then be quantified using a simple colorimetric assay. This assay was done using 0-1000 ng/ml concentrations of Erlotinib and the test compounds in A549 and H1299 cells.

[1] = system: A549 luciferase expressing cells; assay: Nude mice implanted with A549 luciferase expressing cells, tumor observation; assay type: in vivo; settings: 42 days treatment, oral and ip routes
A549 cells [2] = assay: Evaluation of ED50 from lung section and tumor regression studies; assay type: in vivo, nude mice; settings: oral route, based on lung section and tumor regression studies
Method: The ED50 values were evaluated based on the lung section and tumor regression studies. […].

Erb B4 = assay: Western blot of receptor levels in A549 cells: Erb B4; assay type: cell-based, human
Method: (§1) Levels of Erb-1, Erb-2, Erb-3, Erb-4 and VEGFR were determined by western blot analysis.

Erb B2 = assay: Western blot of receptor levels in A549 cells: Erb B2; assay type: cell-based, human
Method: as §1

[3] = system: A549 luciferase expressing cells; assay: Evaluation of lung tissue harvested from nude mice after treatment; assay type: in vivo; settings: various concentrations, oral/ip routes
male and female mice = assay: Acute toxicity (LD0, LD50) in mice; assay type: in vivo; settings: single oral dose; for LD50: Litchfield and Wilcoxon; for LD0: no mortality at end of 7 days
Method: The doses 500, 750, 1000 and 2000 mg/Kg were administered orally. Each group consists of 5 mice. […] The survived animals were autopsied for asserting the absorption of compound through g.i.t.
The LD50 was determined using Litchfield and Wilcoxon (J. Pharmacol. Exp. Ther. 1949, 96: 99-113).

Erb B3 = assay: Western blot of receptor levels in A549 cells: Erb B3; assay type: cell-based, human
Method: as §1

VEGFR = assay: Western blot of receptor levels in A549 cells: VEGFR; assay type: cell-based, human
Method: as §1

A549 cells [4] = assay: In vivo evaluation on subcutaneous lung tumours in nude mice; settings: for tumour regression: subcutaneous A549 tumours
From the text: Nude mice were implanted with 2×10^6 A549 cells in the right hind limb flank.

EGFR = biological target: T1, EGFR (Homo sapiens, UniProt P00533); assay: Western blot analysis of EGFR expression; assay type: cell-based; settings: for concentration causing comparable inhibition of EGFR expression: H1299 or A549 cells, 72 hr
T1 construct: endogenous in cells; host or cells: H1299 or A549 cells
From the text: The gels were blotted onto treated nylon membranes (Biorad) and immunoprobed for EGFR, P13K and AKT.

A549 cells [5] = assay: Visualization of tumors in lung tissue (H&E sections); assay type: in vivo, nude mice; settings: intrapulmonary A549, 2.5 and 20 mg/Kg, oral/ip, thirty days daily treatment
From the text: Nude mice were implanted by intrapulmonary injections of A549 cells. […] Thirty days after daily drug treatments, mice were sacrificed and lungs harvested. The lung tissues were fixed in 10% buffered formaldehyde, paraffin embedded and sectioned. The sections were H&E stained as per statutory protocols to visualize solid or diffuse tumors.

H1299 and A549 cells = assay: Matrigel invasion assay (modified Boyden chamber); assay type: cell-based, human; settings: cells treated 48 hr, migration 24 h
Method: The in vitro invasiveness of H1299 and A549 cells in the presence of various concentrations of NRC compounds (as determined by MTT assay) was assessed using a modified Boyden chamber assay. Cells were treated with these compounds for 48 hr. 1×10^6 cells were suspended in 600 μl of serum-free medium supplemented with 0.2% BSA and placed in the upper compartment of the transwell chambers (Corning Costar Fisher Scientific cat #07-200-158, Pittsburgh Pa.) coated with matrigel (0.7 mg/ml). The lower compartment of the chamber was filled with 200 μl of serum medium and the cells were allowed to migrate for 24 h. after incubation, the cells were fixed and stained with Hema-3 and quantified as previously described (Mohanam et al. 1993). The migrated cells were quantified as percent invasion.

SMILES | tumors at end of treatment [1] | Erb B4 level (Erb B4) | Erb B2 level (Erb B2) | residual tumours in harvested lungs [3] | LD50 (male and female mice) | LD0 (male and female mice) | Erb B3 level (Erb B3) | VEGFR level (VEGFR) | other results
C#Cc1cccc(Nc2ncnc3cc(OCCOC)c(OCCOC)cc23)c1 [Erlotinib HCl, N-(3-Ethylnylphenyl)-6,7-bis(2-methoxyethoxy)-4-quinazolinamine, reference compound] | residual tumors were still present | not seen at all; also recorded: no such indication was seen | not seen at all; also recorded: no such indication was seen | tumours were still present | 805 mg/kg (po) | 500 mg/kg (po) | not seen at all; also recorded: no such indication was seen | not seen at all; also recorded: no such indication was seen | IC50 (A549 and H1299 cells): 0.836 µg/mL; ED50 (A549 cells [2]; Mus musculus, A549, read-out: ED50): 22 mg/kg; tumour regression (A549 cells [4]; 100 mg/Kg dose): could not induce complete tumor regression; also recorded: tumours were still present
C#Cc1cccc(Nc2ncnc3cc(OC)c(OCCCN4CCOCC4)cc23)c1 [NRC-2694, N-(3-ethylnylphenyl)-7-methoxy-6-[3-(4-morpholinyl)propoxy]-4-quinazolinamine] | No tumors were observed | down regulating | down regulating | Complete regression of tumours | could not be pinpointed | 2000 mg/kg (po) | down regulating | down regulating | level of efficacy versus erlotinib HCl (EGFR expression) (EGFR; 80 ng versus 800 ng): ten fold; concentration causing comparable inhibition of EGFR expression (EGFR): 80 ng; concentration causing comparable inhibition of EGFR expression (EGFR; value in parentheses): 190 nm; ED50 (A549 cells [2]): 6.3 mg/kg; Erb B4 level (Erb B4; listed as NRC 2694): down regulated; Erb B2 level (Erb B2; listed as NRC 2694): down regulated; tumors in lung tissue sections, comparison with erlotinib HCl (A549 cells [5]): fared much better; invasion (H1299 and A549 cells): significant decrease in invasion in a dose dependent manner; Erb B3 level (Erb B3; listed as NRC 2694): down regulated; VEGFR level (VEGFR; listed as NRC 2694): down regulated; tumour regression (A549 cells [4]; 10 mg/Kg dose): complete regression of tumours; superiority in efficacy versus erlotinib HCl (A549 cells [4]; 10 mg/Kg versus 100 mg/Kg): ten fold
